Measured values: ChEMBL document CHEMBL1201862, “PubChem BioAssay data set” (2004)
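Protocol summary: plate cells (96-well), add compound at 5 concentrations, incubate 48 h, interpolate endpoints linearly. The concentration for 50% growth inhibition is given as GI50.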 Active and inactive are the calls of the source. Rule as the data show it: active = GI50 up to about 1.1 µM and inactive = higher.

Experiments:
Assay in all cases: growth of human tumour cells (NCI), 48 h
[1] = test system: 786-0
[2] = test system: A498
[3] = test system: A549
[4] = test system: ACHN
[5] = test system: CAKI-1
[6] = test system: CCRF-CEM
[7] = test system: COLO 205
[8] = test system: DU-145
[9] = test system: EKVX
[10] = test system: HCC 2998
[11] = test system: HCT-116
[12] = test system: HCT-15
[13] = test system: HL-60
[14] = test system: HOP-62
[15] = test system: HOP-92
[16] = test system: HT-29
[17] = test system: Hs-578T
[18] = test system: IGROV-1
[19] = test system: K562
[20] = test system: KM12
[21] = test system: LOX IMVI
[22] = test system: M14
[23] = test system: MCF7
[24] = test system: MDA-MB-231
[25] = test system: MDA-MB-435
[26] = test system: MOLT-4
[27] = test system: Malme-3M
[28] = test system: NCI-H226
[29] = test system: NCI-H23
[30] = test system: NCI-H460
[31] = test system: NCI-H522
[32] = test system: NCI/ADR-RES
[33] = test system: OVCAR-3
[34] = test system: OVCAR-4
[35] = test system: OVCAR-5
[36] = test system: OVCAR-8
[37] = test system: PC-3
[38] = test system: RPMI-8226
[39] = test system: RXF 393
[40] = test system: SF-268
[41] = test system: SF-295
[42] = test system: SF-539
[43] = test system: SK-MEL-28
[44] = test system: SK-MEL-2
[45] = test system: SK-MEL-5
[46] = test system: SK-OV-3
[47] = test system: SN12C
[48] = test system: SNB-19
[49] = test system: SR
[50] = test system: SW-620
[51] = test system: T47D
[52] = test system: TK-10
[53] = test system: U-251
[54] = test system: UACC-257
[55] = test system: UACC-62
[56] = test system: UO-31
[57] = test system: SNB-75
[58] = test system: MDA-N

In the case of COc1cc(/C=N/N=C(\N)NO)cc(OC)c1OC, the GI50 [1] is reported as 15.4 µM (inactive), the GI50 [2] is reported as 46.3 µM (inactive) and the GI50 [3] is reported as 18.7 µM (inactive). For the same compound, the GI50 [4] was 21.5 µM (inactive), the GI50 [5] was 72.4 µM (inactive) and the GI50 [6] was 31.8 µM (inactive). For the same compound, the GI50 [7] was 12.4 µM (inactive), the GI50 [8] was 26.3 µM (inactive) and the GI50 [9] was 19.6 µM (inactive). The GI50 [10] was 36.6 µM (inactive), the GI50 [11] was 32.1 µM (inactive) and the GI50 [12] was 28.6 µM. For the same compound, the GI50 [13] was 23 µM (inactive), the GI50 [14] was 27.4 µM (inactive) and the GI50 [15] was 23.5 µM (inactive). The GI50 [16] was 22.8 µM (inactive), the GI50 [17] was 42.2 µM (inactive) and the GI50 [18] was 42.7 µM (inactive). The GI50 [19] was 21.6 µM (inactive), the GI50 [20] was 18.7 µM (inactive) and the GI50 [21] was 31.1 µM (inactive). For the same compound, the GI50 [22] was 28.4 µM (inactive), the GI50 [23] was 22.6 µM (inactive) and the GI50 [24] was > 100 µM (inactive). The GI50 [25] was 44.6 µM (inactive), the GI50 [26] was 40.6 µM (inactive) and the GI50 [27] was 22 µM (inactive). The GI50 [28] was 20.5 µM (inactive), the GI50 [29] was 38.2 µM (inactive) and the GI50 [30] was 28.2 µM (inactive). The GI50 [31] was 34.8 µM (inactive), the GI50 [32] was 15.7 µM (inactive) and the GI50 [33] was 21.9 µM (inactive). The GI50 [34] was 40.8 µM (inactive), the GI50 [35] was 49.5 µM (inactive) and the GI50 [36] was 18.5 µM (inactive). For the same compound, the GI50 [37] was 44.6 µM (inactive), the GI50 [38] was 37.2 µM (inactive) and the GI50 [39] was 52.6 µM (inactive). For the same compound, the GI50 [40] was 31.1 µM (inactive), the GI50 [41] was 25.2 µM (inactive) and the GI50 [42] was 30.5 µM (inactive). For the same compound, the GI50 [43] was 57 µM (inactive), the GI50 [44] was 54.3 µM (inactive) and the GI50 [45] was 20.6 µM (inactive). The GI50 [46] was 67.8 µM (inactive), the GI50 [47] was 33.8 µM (inactive) and the GI50 [48] was > 100 µM (inactive). The GI50 [49] was 24.5 µM (inactive), the GI50 [50] was 50 µM (inactive) and the GI50 [51] was 36.6 µM (inactive). The GI50 [52] was > 100 µM (inactive), the GI50 [53] was 52.2 µM (inactive) and the GI50 [54] was 43.1 µM (inactive). For the same compound, the GI50 [55] was 13.5 µM (inactive) and the GI50 [56] was 33.1 µM (inactive).

O=CC(O)C(O)C(O)C(O)COP(=O)(O)Cc1ccccc1 (stereo not given) was tested, and the GI50 [1] was > 10 µM (inactive), the GI50 [3] was > 10 µM (inactive) and the GI50 [4] was > 10 µM (inactive). For the same compound, the GI50 [5] was > 10 µM (inactive), the GI50 [14] was > 10 µM (inactive) and the GI50 [19] was > 10 µM (inactive). The GI50 [23] was > 10 µM (inactive), the GI50 [29] was > 10 µM (inactive) and the GI50 [30] was > 10 µM (inactive). For the same compound, the GI50 [32] was > 10 µM (inactive), the GI50 [34] was > 10 µM (inactive) and the GI50 [35] was > 10 µM (inactive). The GI50 [38] was > 10 µM (inactive), the GI50 [39] was > 10 µM (inactive) and the GI50 [40] was > 10 µM (inactive). The GI50 [43] was > 10 µM (inactive), the GI50 [44] was > 10 µM (inactive) and the GI50 [45] was > 10 µM (inactive). For the same compound, the GI50 [46] was > 10 µM (inactive), the GI50 [57] was > 10 µM (inactive) and the GI50 [49] was > 10 µM (inactive). The GI50 [50] was > 10 µM (inactive), the GI50 [51] was > 10 µM (inactive) and the GI50 [53] was > 10 µM (inactive).

Cc1ccc2c(c1)Nc1ccccc1P2(=O)O was tested, and the GI50 [1] was > 100 µM (inactive), the GI50 [2] was > 100 µM (inactive) and the GI50 [3] was > 100 µM (inactive). For the same compound, the GI50 [4] was > 100 µM (inactive), the GI50 [5] was > 100 µM (inactive) and the GI50 [6] was > 100 µM (inactive). The GI50 [7] was > 100 µM (inactive), the GI50 [8] was > 100 µM (inactive) and the GI50 [9] was > 100 µM (inactive). The GI50 [10] was > 100 µM (inactive), the GI50 [11] was > 100 µM (inactive) and the GI50 [12] was > 100 µM. The GI50 [13] was > 100 µM (inactive), the GI50 [14] was > 100 µM (inactive) and the GI50 [15] was > 100 µM (inactive). For the same compound, the GI50 [16] was > 100 µM (inactive), the GI50 [18] was > 100 µM (inactive) and the GI50 [19] was > 100 µM (inactive). For the same compound, the GI50 [20] was > 100 µM (inactive), the GI50 [21] was > 100 µM (inactive) and the GI50 [22] was > 100 µM (inactive). The GI50 [24] was > 100 µM (inactive), the GI50 [25] was > 100 µM (inactive) and the GI50 [58] was > 100 µM (inactive). For the same compound, the GI50 [26] was > 100 µM (inactive), the GI50 [27] was > 100 µM (inactive) and the GI50 [28] was > 100 µM (inactive). For the same compound, the GI50 [29] was > 100 µM (inactive), the GI50 [30] was > 100 µM (inactive) and the GI50 [31] was > 100 µM (inactive). The GI50 [32] was > 100 µM (inactive), the GI50 [33] was > 100 µM (inactive) and the GI50 [34] was > 100 µM (inactive). For the same compound, the GI50 [35] was > 100 µM (inactive), the GI50 [36] was > 100 µM (inactive) and the GI50 [37] was > 100 µM (inactive). For the same compound, the GI50 [39] was > 100 µM (inactive), the GI50 [40] was > 100 µM (inactive) and the GI50 [41] was > 100 µM (inactive). The GI50 [42] was > 100 µM (inactive), the GI50 [43] was > 100 µM (inactive) and the GI50 [44] was > 100 µM (inactive). The GI50 [45] was > 100 µM (inactive), the GI50 [46] was > 100 µM (inactive) and the GI50 [47] was > 100 µM (inactive). The GI50 [48] was > 100 µM (inactive), the GI50 [57] was < 0.01 µM (active) and the GI50 [49] was > 100 µM (inactive). The GI50 [50] was > 100 µM (inactive), the GI50 [51] was > 100 µM (inactive) and the GI50 [52] was > 100 µM (inactive). The GI50 [53] was > 100 µM (inactive), the GI50 [54] was > 100 µM (inactive) and the GI50 [55] was > 100 µM (inactive). For the same compound, the GI50 [56] was > 100 µM (inactive).
